Results as given in patent EP0466030B1, “N-acyl dipeptides and their use” (DEGUSSA AG, priority 1990, dated 1992).
Where a SMILES comes first, the peptide text is derived from it. Bridges are numbered along the chain shown (N, C = ends). Roman numbers before positions name the chains, in order. The star is where a group is joined. Butyryl = CCCC(=O)*

Legend:
[1] = Ratten; Z. Ernährungswiss. 28 (1989), 32 - 35; cited from earlier work
[2] = system: L1210 Mäuse-Leukaemiezellen; test: Comparative cell growth experiment with supplemented culture medium; assay type: cell-based; details: for Zellwachstum: comparison among the three supplements L-Glutamin, L-Alanyl-L-glutamin, N-Acetyl-L-alanyl-L-glutamin; for Wachstum im Vergleich zum glutaminfreien Medium: supplemented medium versus glutamine-free medium
Description: Weiterhin wurde überraschend festgestellt, daß N-Acyldipeptide als Quelle für die C-terminalen Aminosäuren in Nährmedien für Zellkulturen dienen können.

[3] = Cleavage of the substrate by pig kidney homogenate (decrease of substrate followed by HPLC); assay type: in vitro ADME, Schwein; details: for spezifische Aktivität des Nierenhomogenisats: 1 ml supernatant + 1 ml 0,1 M Tris/HCl (pH 7) + 1 ml 30 mM substrate solution, 37°C, HPLC; for schneller als N-Acetyl-L-tyrosin gespalten: in vitro, Schweinenierenhomogenisat, rate relative to N-Acetyl-L-tyrosin
Method: 0,1 Mol L-Alanyl-L-tyrosin wurden in 50 ml 2N Natronlauge gelöst. Bei 0°C wurden 0,11 Mol Acetanhydrid in 18 ml Tetrahydrofuran und 27,5 ml 4N Natronlauge so zugetropft, daß der pH-Wert des Reaktionsgemisches stets bei etwa 11 lag. Nach Beendigung der Zugabe wurde 1 Stunde lang nachgerührt, dann mit konzentrierter Salzsäure auf pH 1 angesäuert und das Volumen der Lösung auf die Hälfte eingeengt. Das N-Acetyl-L-alanyl-L-tyrosin kristallisierte aus, wurde abfiltriert, mit Wasser gewaschen und getrocknet. […] 1 ml des nach 30-minütiger Zentrifugation bei 10000 U/min erhaltenen Überstandes wurden mit 1 ml 0,1 M Tris/HCl (pH 7)-Puffer und 1 ml einer 30 mM Lösung des Substrates in 0,1 M Tris/HCl (pH7)-Puffer versetzt und bei 37°C inkubiert. Die zeitliche Abnahme der Substratkonzentration wurde durch HPLC verfolgt.

[4] = system: L1210 Mäuse-Leukaemiezellen; details: general statement on cells, no source or experiment given; cited from earlier work

## CC(=O)NCC(=O)N[C@@H](CSSC[C@H](NC(=O)CNC(C)=O)C(=O)O)C(=O)O [Bis-(acetylglycyl)-L,L-cystin] (I: Ac-Gly-Cys-OH / II: Ac-Gly-Cys-OH; disulfide I:2-II:2)
[1]
  Eignung als Cysteinquelle bei der parenteralen Ernährung: nicht als Cysteinquelle geeignet

## C[C@H](N)C(=O)N[C@@H](CCC(N)=O)C(=O)O [L-Alanyl-L-glutamin] (H-Ala-Gln-OH)
[2]
  Zellwachstum: kein signifikanter Unterschied
  Wachstum im Vergleich zum glutaminfreien Medium: deutlich erhöhtes Wachstum

## NC(=O)CC[C@H](N)C(=O)O [L-Glutamin]
[2]
  Zellwachstum: kein signifikanter Unterschied
  Wachstum im Vergleich zum glutaminfreien Medium: deutlich erhöhtes Wachstum

## CC(=O)N[C@@H](C)C(=O)N[C@@H](CCC(N)=O)C(=O)O [N-Acetyl-L-alanyl-L-glutamin] (Ac-Ala-Gln-OH)
[2]
  Zellwachstum: kein signifikanter Unterschied
  Wachstum im Vergleich zum glutaminfreien Medium: deutlich erhöhtes Wachstum
[2]; utilisation by L1210 cells as glutamine source
  von den Zellen verwertet: sehr gut verwertet

## CC(=O)N[C@@H](C)C(=O)N[C@@H](Cc1ccc(O)cc1)C(=O)O [N-Acetyl-L-alanyl-L-tyrosin] (Ac-Ala-Tyr-OH)
[3]
  spezifische Aktivität des Nierenhomogenisats: 420 nMol pro Minute und g Niere
  schneller als N-Acetyl-L-tyrosin gespalten: 10 mal

## CC(=O)N[C@@H](CCC(N)=O)C(=O)O [N-Acetyl-L-glutamin]
[4]
  von Zellen genutzt: nicht oder nur sehr schlecht genutzt

## CCCC(=O)N[C@@H](C)C(=O)N[C@@H](Cc1ccc(O)cc1)C(=O)O [N-Butyryl-L-alanyl-L-tyrosin] (Butyryl-Ala-Tyr-OH)
[3]
  spezifische Aktivität des Nierenhomogenisats: 660 nMol pro Minute und g Niere
  schneller als N-Acetyl-L-tyrosin gespalten: 15 mal
